Source: patent US10105414B2, “Peptides derived from RS1 which down-regulate glucose absorption after a glucose rich meal and increase insulin sensitivity” (Julius-Maximilians-Universität Würzburg, priority 2014, dated 2018)
Like-named read-outs stand apart in the source and are kept apart here.

Key:
[1] = target: T1, ODC (Homo sapiens, UniProt P11926); assay: Activity of purified ODC (released CO2); format: biochemical; details: 100 μM tripeptide, 80 ng purified ODC, 1 h, 37° C.
T1 sequence (P11926 1-461): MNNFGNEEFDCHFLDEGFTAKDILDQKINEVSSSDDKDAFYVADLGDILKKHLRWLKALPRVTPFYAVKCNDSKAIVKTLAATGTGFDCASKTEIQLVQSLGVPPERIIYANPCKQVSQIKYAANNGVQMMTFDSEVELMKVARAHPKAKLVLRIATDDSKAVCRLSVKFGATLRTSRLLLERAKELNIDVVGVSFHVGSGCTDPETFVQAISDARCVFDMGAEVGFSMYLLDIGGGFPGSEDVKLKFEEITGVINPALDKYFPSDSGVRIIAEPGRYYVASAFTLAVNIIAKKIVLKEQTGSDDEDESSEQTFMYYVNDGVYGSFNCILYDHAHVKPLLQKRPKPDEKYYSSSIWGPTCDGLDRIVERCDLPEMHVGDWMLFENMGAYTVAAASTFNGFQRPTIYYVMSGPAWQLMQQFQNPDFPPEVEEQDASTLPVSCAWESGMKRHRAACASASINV

[2] = system: mSGLT1
Procedure: (§1) Standardised t areas of human small intestinal mucosa (FIGS. 13,19) or 1 cm segments of everted mouse small intestine (FIGS. 14,15,20) were washed three times at 37° C. with Krebs-Ringer buffer containing 5 mM D-glucose and incubated for 30 min at 37° C. in Krebs-Ringer buffer containing 5 mM D-glucose plus different concentrations of tripeptides. Thereafter the tissue was washed three times at 0° C. in Krebs-Ringer buffer without glucose and uptake measurements were performed.
(§2) For measurement of SGLT1 mediated glucose uptake, the everted segments of mouse small intestine or defined areas of human mucosa were incubated for 2 min at 37° C. with Krebs-Ringer buffer containing 10 μM [^14C]AMG with or without 0.2 mM phlorizin. Uptake was stopped by transferring the segments into ice cold Krebs-Ringer buffer containing 0.2 mM phlorizin for 5 min. After washing with ice cold Krebs-Ringer buffer the intestinal segments or pieces of human mucosa were dissolved in 0.5 ml Soluence-350) (Perkin Elmer Inc. Waltham Mass., USA). Radioactivity was analysed by liquid scintillation counting. Phlorizin inhibited AMG uptake per cm length or per standard area of the mucosa was calculated.
Thereafter the segments were washed with PBS buffer and phlorizin inhibited uptake of 10 μM [^14C]AMG was measured.

[3] = system: hSGLT1; details: 30 min; for down-regulation of hSGLT1 mediated AMG uptake: 5 mM D-glucose
Procedure: Jejunal segments which were routinely dissected during bariatric operations of highly obese patients were stored for 1-3 h on ice in Dulbecco's modified Eagle's medium containing 5 mM D-glucose. The mucosa was isolated and circular areas of the mucosa were dissected using a punching instrument.
as §1, §2
Next, it was investigated which of the QXP-type tripeptides are capable to downregulate hSGLT1 expression in human small intestine in the presence of high glucose. Jejunal samples that were obtained during bariatric surgery of obese patients (males and females with a mean age of 50 years with a mean body mass index of 50) were used. […] A part of the jejumum which is routinely removed during bariatric surgery, was carried to the laboratory using ice-cold culture medium containing 6 mM D-glucose. Part of the mucosa was dissected and identical areas of the mucosa were isolated using a punching instrument. The mucosal pieces were washed with glucose free buffer and incubated for 30 min at 37° C. in tissue culture medium (pH 6.4) containing 5 mM D-glucose and different QXP-type tripeptides. Thereafter the sample were washed two times with PBS buffer (pH 7.4, 37° C.) and incubated for 2 min at 37° C. in PBS (pH 7.4) containing 100 mM sodium and 10 μM [^14C]AMG. The incubation was performed in the absence and presence of 200 μM of the SGLT1 inhibitor phlorizin. Thereafter the samples were washed with ice-cold PBS, the tissue was dissolved, and radioactivity was determined by liquid scintillation counting. The phorizin inhibited AMG uptake was calculated.

[4] = system: hCNT1; assay: hCNT1-mediated uridine uptake in Xenopus laevis oocytes after injection of peptides; format: cell-based, human; details: for uptake of 5 μM [3H]uridine expressed by hCNT1: low intracellular glucose, no AMG injected
Procedure: (§3) Selected oocytes were injected with 50 nl of water containing cRNAs (2.5 ng of hSGLT1 or 0.5 ng of hCNT1). For expression oocytes were incubated for 2-3 days at 16° C. in modified Barth's solution with gentamycin. Noninjected control oocytes were incubated in parallel.
(§4) Before uptake measurements were started, 50 nl of K-Ori buffer containing peptides, polypeptides, 1 pM of calmodulin stimulated kinase 2 (CK2) inhibitor KN93 (Calbiochem San Diego. Calif.), 3 mM of the omithinedecarboxlase inhibitor difluoromethylornithine DFMO and/or or 100 pmol α-methyl-α-D-glucopyranoside (AMG) were injected and the oocytes were incubated for 1 h at room temperature. Uptake was measured in Ori buffer at room temperature. Measurements in transporter expressing oocytes were corrected for measurements in noninjected oocytes. Uptake of 50 μM [^14C]AMG was measured after 15 min incubation and washing in ice-cold Ori buffer containing 1 mM phlorizin. Uptake of 5 μM [^3H]uridine was measured after 15 min incubation and washing in ice-cold Ori buffer. Oocytes were solubilized in 5% (w/v) SDS and analyzed for radioactivity by scintillation counting.
(§5) For comparison of mean values from 2 groups the Student's t-test for unpaired samples was employed.

[5] = system: mSGLT1; details: RS1−/− mice starved over night; gavage 20 μmol per mouse; after 2 h
Procedure: as §2
(§6) After 2 h the animals were killed, their small intestines were everted and phlorizin inhibited uptake of 10 μM [^14C]AMG Into segments of the everted jejunum was measured (FIG. 12A).

[6] = system: hSGLT1; assay: hSGLT1-mediated AMG uptake in Xenopus laevis oocytes 1 h after injection of peptides; format: cell-based, human; details: for down-regulation of hSGLT1 when putrescine was added: intracellular concentration 1 μM
Procedure: as §3, §4, §5

[7] = RS1−/− mice; gavage 20 μmol QEP before 40% D-glucose gavage
Procedure: Blood (2 μL) was collected from the tail vein and analysed using the amperometric glucose oxidase method (glucose meter, ACCU-CHEK Aviva). Blood insulin-Insulin was determined using the rat C-peptide ELISA from Mercodia (Uppsala, Sweden) which is based on the sandwich technique using two monoclonal antibodies directed against two different antigenic determinants on the C-peptide.
as §6

[8] = system: hCNT3; assay: hCNT3-mediated uridine uptake in Xenopus laevis oocytes after injection of peptides; format: cell-based, human; details: low intracellular glucose, no AMG injected
Procedure: FIG. 9. […] Posttransciptional downregulation of hCNT1 and hCNT3 was measured without injection of AMG. […] One hour later uptake of 5 μM [^3H]uridine was measured.
as §4

[9] = target: T1, ODC; assay: ODC activity (released CO2) in HEK293 cells transfected with ODC; format: cell-based; design: expressed in transfected cells; host or cells: HEK293
Procedure: FIG. 23. […] Expressed uptake of 25 μM [^14C]AMG was measured 1 h later as FIG. 2. In A-C mean value±SE of 24-30 oocytes from three independent experiments are presented. D) HEK293 cells were transiently transfected with ODC, ODC plus hRS1-Reg or with ODC plus control vector. […] In D and E mean values±SE from 3-5 independent experiments are indicated. ***P<0.001 for difference to controls measured by ANOVA with posthoc Tukey comparison.
(§7) Employing two-hybrid screening and immunocoprecipitation experiments evidence was provided that hRS1-Reg binds to ODC (data not shown). It was shown that the release of SGLT1 containing vesicles from the Golgi apparatus was blocked by specific ODC Inhibitor difluoromethylornithine (DFMO) and that the DFMO effect was blunted when putrescine was added (FIG. 23A). Since hRS1-Reg and DFMO down-regulate hSGLT1 to a similar degree and the down-regulations were not additive, RS1-Reg and ODC employ the same pathway for down-regulation of hSGLT1.

[10] = target: T1, ODC; assay: Two-hybrid screening and immunocoprecipitation; format: binding; details: data not shown
Procedure: as §7

[11] = without injection of AMG (intracellular AMG <10 μM)

In the case of “PEQ: reverse tripeptide PEQ as control [reference compound]”, the “inhibition of ODC activity” value [1] is reported as “not”.

With glutamine-glutamic acid-proline [QEP] the “effect on SGLT1 mediated AMG uptake, first series of experiments” value [2] was “no effect”, the “down-regulation of hSGLT1 mediated AMG uptake” value ([3]; 0.1 mM) was “not statistically significant” and the “down-regulation of hSGLT1 mediated AMG uptake” value ([3]; 0.5 mM) was “not statistically significant”. The “down-regulation of hSGLT1 mediated AMG uptake” value ([3]; 1 mM) was 40%, the “SGLT1 mediated AMG uptake at low intracellular glucose” value ([3]; 5 mM QEP in PBS without glucose, data not shown) was “did not decrease” and the “down-regulation of hSGLT1 mediated AMG uptake” value ([3]; 15 mM) was 75%. For the same molecule, the “uptake of 5 μM [3H]uridine expressed by hCNT1” value [4] was “not able to inhibit”, the “inhibition of ODC activity” value [1] was “about 40%” and the insulin sensitivity (NZO mice, 5 mM QEP in drinking water) was “increased”. For the same molecule, the “SGLT1-mediated AMG transport into enterocytes and glucose absorption during an OGTT” value (mouse, in vivo) was “not decreased”, the “decrease of basal concentration of insulin in the serum” value (mouse, in vivo) was 50% and the “increase and decrease of serum glucose after gavage with glucose” value (mouse, in vivo) was “no effect”. The “increase of serum insulin after gavage with glucose” value (mouse, in vivo) was “decreased”, the “decrease of phlorizin inhibited uptake of 10 μM [14C]AMG into everted jejunum” value [5] was “about 30%” and the “affinity at high intracellular glucose higher than affinity of QSP at low intracellular glucose” value [6] was “about 1000 times”. For the same molecule, the “degree of down-regulation of hSGLT1” value ([6]; 5 pM, intracellular AMG ~0.25 mM) was about 45%, the “inhibition of SGLT1 mediated transport” value ([6]; 50 nM tripeptide, no AMG injected) was “inhibition” and the “increase of affinity (decrease of IC50) for down-regulation of hSGLT1 at high versus low intracellular AMG” value ([6]; intracellular AMG ~250 μM versus low) was “more than 15000 fold”. The “down-regulation of hSGLT1 when putrescine was added” value [6] was “blunted”, the “inhibition of SGLT1 expression” value ([6]; with injection of AMG (intracellular AMG ~0.25 mM)) was “about 50%” and the “down-regulation / inhibition of hSGLT1-mediated AMG uptake” value [6, 11] was “about 40%”. The IC50 ([6]; without injection of AMG (intracellular AMG <10 μM), read-out: IC50 for down-regulation of hSGLT1-mediated AMG uptake) was 7.9 nM, the “plasma D-glucose 15 min after glucose gavage” value [7] was “significantly reduced” and the “uptake of 5 μM [3H]uridine expressed by hCNT3” value [8] was “not able to inhibit”.

B1: hRS1-Reg: regulatory domain of RS1 from human comprising amino acids 16-98 of hRS1 (SEQ ID No. 6) (protein, listed as Homo sapiens)
chain: SSGQSPDVGNPMSLARSVSASVCPIKPSDSDRIEPKAVKALKASAEFQLNSEKKEHLSLQDLSDHASSADHAPTDQSPAMPMQ
For B1, the “effect of 250 μM intracellular AMG on affinity for down-regulation of hCNT1” value ([4]; intracellular AMG 250 μM) was “not altered”, the “uptake of 5 μM [3H]uridine expressed by hCNT1” value [4] was “decreased” and the “down-regulation of hCNT1” value ([4]; without injection of AMG) was “about 50%”. The IC50 ([4]; without injection of AMG, read-out: IC50 for down-regulation of hCNT1-mediated uridine uptake) was 126 ± 6 nM, the “ODC activity when hRS1-Reg was coexpressed” value [9] was “decreased” and the “binding to ODC” value [10] was “binds to ODC”. The “down-regulation of hSGLT1 by hRS1-Reg together with DFMO” value ([6]; DFMO intracellular concentration 3 mM) was “not additive”, the “affinity for down-regulation of hSGLT1 when CK2 is blocked by inhibitor KN93” value ([6]; co-injected KN93, no AMG injected) was “largely increased” and the “effect of intracellular AMG on the affinity for down-regulation of hSGLT1 after inhibition of CK2” value ([6]; co-injected KN93, with AMG) was “drastically decreased”. For the same molecule, the “down-regulation of hSGLT1 when putrescine was added” value [6] was “blunted”, the “down-regulation / inhibition of hSGLT1-mediated AMG uptake” value [6, 11] was “about 50%” and the “uptake of 5 μM [3H]uridine expressed by hCNT3” value [8] was “decreased”.
